Results: patent US11517541B2, “Applications of spermidine and its derivatives” (GENEHEAL BIOTECHNOLOGY CO., LTD., priority 2017, dated 2022)

How the values were obtained:
[1] = test system: breast cancer cell strain MD468; experiment: Cancer cell growth inhibition / cell viability; assay type: cell-based; conditions: after 48 hours of drug administration
[2] = test system: lung cancer cell strain A549; experiment: Cancer cell growth inhibition / cell viability; assay type: cell-based; conditions: Homo sapiens, after 48 hours of drug administration
[3] = test system: lung cancer cell strain PC9; experiment: Cancer cell growth inhibition / cell viability; assay type: cell-based; conditions: after 48 hours of drug administration
[4] = test system: breast cancer cell strain MD231; experiment: Cancer cell growth inhibition / cell viability; assay type: cell-based; conditions: after 48 hours of drug administration
[5] = biological target: T1, PAICS (Homo sapiens, UniProt P22234); experiment: Inhibition of spermidine on PAICS activity (SAICAR accumulation); conditions: biochemical enzyme activity experiments and cell biology experiments
T1 sequence (P22234 1-425): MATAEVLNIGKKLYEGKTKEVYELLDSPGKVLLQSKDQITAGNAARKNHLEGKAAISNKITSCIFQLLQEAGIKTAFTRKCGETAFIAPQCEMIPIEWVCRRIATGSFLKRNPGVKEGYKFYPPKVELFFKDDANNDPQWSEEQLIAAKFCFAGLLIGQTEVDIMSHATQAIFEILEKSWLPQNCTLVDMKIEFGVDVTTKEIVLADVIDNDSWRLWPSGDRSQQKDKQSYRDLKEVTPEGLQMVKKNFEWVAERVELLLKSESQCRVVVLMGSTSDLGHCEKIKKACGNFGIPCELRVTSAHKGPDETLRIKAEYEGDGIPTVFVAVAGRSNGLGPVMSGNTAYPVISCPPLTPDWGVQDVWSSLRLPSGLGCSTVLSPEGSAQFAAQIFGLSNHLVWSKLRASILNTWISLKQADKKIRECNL
Excerpt: The accumulation of toxic compound SAICAR is reduced by inhibiting the activity of PAICS.

[6] = test system: oncogene myc; experiment: Inhibition of oncogene MYC expression (Western Blot); assay type: cell-based; conditions: FIG. 4
[7] = test system: lung cancer cell strain H1299; experiment: Cancer cell growth inhibition / cell viability; assay type: cell-based; conditions: Homo sapiens, NCI-H1299, after 48 hours of drug administration

Question: How did the IC50 [1] turn out when `NCCCCNCCCN` [spermidine] was run?
Answer: The IC50 was 46.1 µM.

Question: What about the IC50 [2] of the same molecule?
Answer: Its IC50 is 52.1 µM.

Question: What about the IC50 [3] of the same molecule?
Answer: The IC50 was 23.4 µM.

Question: And the IC50 [4]?
Answer: Its IC50 is 1.41 µM.

Question: What about the “inhibition of the accumulation of SAICAR” value [5] of the same molecule?
Answer: Its value is “up to 68.98%”.

Question: And the “expression of oncogene myc” value [6]?
Answer: The value was “significantly down-regulated”.

Question: And the IC50 [7]?
Answer: Its IC50 is 21.1 µM.
